Data: US20260053778A1, “USE OF NOVEL PPAR ACTIVITY MODULATOR FOR PREVENTION, AMELIORATION OR TREATMENT OF DEGENERATIVE BRAIN DISEASES” (POSTECH RESEARCH AND BUSINESS DEVELOPMENT FOUNDATION, priority 2022, published 2026)

Assays:
[1] = molecular target: T1, PPARβ/δ (Homo sapiens, UniProt Q03181); assay: GAL4-transactivation assay in HEK293A cells, PPARβ/δ; assay type: cell-based; conditions: GAL4 reporter, 24 h, compared with GW501516
T1 construct: expressed in transfected cells; host or cells: HEK293A
T1 sequence (Q03181 1-441): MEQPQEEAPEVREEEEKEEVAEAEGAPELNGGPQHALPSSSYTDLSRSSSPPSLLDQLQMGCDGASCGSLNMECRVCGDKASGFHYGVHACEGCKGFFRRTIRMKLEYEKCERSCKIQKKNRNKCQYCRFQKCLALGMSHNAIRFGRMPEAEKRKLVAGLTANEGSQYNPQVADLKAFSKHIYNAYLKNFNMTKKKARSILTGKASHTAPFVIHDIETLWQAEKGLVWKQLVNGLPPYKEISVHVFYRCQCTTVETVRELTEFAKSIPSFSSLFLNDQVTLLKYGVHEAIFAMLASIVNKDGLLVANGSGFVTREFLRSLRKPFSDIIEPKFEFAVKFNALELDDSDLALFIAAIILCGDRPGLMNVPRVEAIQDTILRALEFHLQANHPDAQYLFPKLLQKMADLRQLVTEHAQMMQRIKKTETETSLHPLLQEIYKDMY
Method: A GAL4-transactivation assay experiment was performed to determine whether the drug was bound to the PPAR ligand binding site. HEK293A cells were transfected with GAL4-reporter plasmid and pGL4.74 (Promega, Madison, WI, USA) as an internal standard via electroporation using the Neon Transfection System (Invitrogen, Carlsbad, CA, USA). All vectors were kindly provided by Professor Kanno Yuichiro, Toho University, Japan. After overnight culture, cells were treated with DTMB and each positive control compound for 24 h. Cells were then harvested, resuspended in luciferase lysis buffer (Promega), and incubated on ice for 10 min. Cell debris was removed by centrifugation at 20,000×g, 4° C. for 10 min, and the supernatant was used for the luciferase assay. Luciferase activity was measured using the Dual Luciferase Reporter Assay System (Promega) according to the manufacturer's instructions. In the measurement experiment, firefly luciferase activity was normalized to Renilla luciferase activity. To investigate the concentration-dependent effect of DTMB drug, EC50 values were measured by treating various concentrations of DTMB.

[2] = test system: primary microglia isolated from mouse; assay: Cytokine ELISA in primary microglia; assay type: cell-based; conditions: primary microglia treated with LPS or Aβ aggregates, DTMB 24 h
Method: To confirm a more clear anti-inflammatory effect, the microglia cell line (BV2) and microglia isolated from mice were treated with lipopolysaccharide (LPS) and Aβ aggregates to induce an inflammatory response, and then DTMB was treated to measure the decrease in cytokine levels in microglia by DTMB treatment using ELISA.
Primary microglial culture was performed as described in the literature [Lian H, Roy E, Zheng H. Protocol for primary microglial culture preparation. Bio-protocol. 2016; 6(21)]. Postnatal day 3 mice were used for primary microglial cell preparation. Newborn mouse pups were anesthetized on ice and then sacrificed. The isolated cortex and hippocampus were collected after removing the meninges. The brain tissues were dissociated by incubation with trypsin (2.5%) in HBSS (Gibco, Gaithersburg, MD, USA) for 15 min. The cell homogenate was then cultured in M-CSF (20 ng/mL, R&D Systems) supplemented with DMEM-F12 medium containing 10% fetal bovine serum, 10% horse serum, 1% GlutaMAX (Gibco, MD, USA), and 1% penicillin/streptomycin (Welgene, Korea). After 10 days, microglia were purified by shaking at 260 rpm for 2 h.
Cytokine levels (TNF-α, IL-1β, and IL-6) were measured in the media of BV2 microglia and primary microglia treated with LPS (1 μg/mL) and human Aβ1-42 (5 μg/mL). […]

[3] = test system: primary microglia; assay: Quantitative PCR of inflammation genes in primary microglia; assay type: cell-based, mouse; conditions: qPCR
Source text: In addition, the gene expression levels of Il-6. Il-1 #, and iNOS, which are NF-κB target genes related to chronic inflammation, and Arg-1, an anti-inflammatory marker, were confirmed by quantitative PCR (qPCR) analysis in primary microglia.
Total RNA was isolated using TRI reagent (Molecular Research Center, Cincinnati, OH, USA). RNA was reverse transcribed using the ImProm-II Reverse Transcription System (Promega) according to the manufacturer's instructions. For detection and quantification, the StepOnePlus Real-Time PCR System (Applied Biosystems, Foster City, CA, USA) was used with FastStart Universal SYBR Green Master (Roche, Basel, Switzerland). Real-time qPCR data were analyzed using the comparative CT method.

[4] = molecular target: T2, HIS-tagged recombinant PPAR α protein (Homo sapiens, UniProt Q07869); assay: CNBr-drug and protein binding experiment, PPARα; conditions: Western blotting after 24 h incubation
T2 sequence (Q07869 239-466 limits assumed): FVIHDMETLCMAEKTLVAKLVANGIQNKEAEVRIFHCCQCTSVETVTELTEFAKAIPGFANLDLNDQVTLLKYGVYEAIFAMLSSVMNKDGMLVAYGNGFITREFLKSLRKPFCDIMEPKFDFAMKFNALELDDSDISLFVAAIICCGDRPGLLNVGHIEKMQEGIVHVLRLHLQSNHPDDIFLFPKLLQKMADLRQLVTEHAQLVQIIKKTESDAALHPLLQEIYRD
Method: Since the computer prediction program predicted that DTMB binds to PPAR transcription factors, CNBr-drug and protein binding experiments were conducted to confirm whether DTMB actually binds to PPAR. To determine the actual degree of drug-protein binding, the reaction of the protein of the PPAR-α, β/δ, γ ligand-binding portion with the DTMB drug-bound CNBr beads was confirmed through Western blotting.
Specifically, CNBr Sepharose 4B beads were prepared and activated according to the instructions. 100 mg of CNBr-activated Sepharose 4B beads were incubated with drugs or DMSO at 4° C. for 18 h. The drug-bound beads reacted with HIS-tagged recombinant PPAR α, β/δ, and γ proteins. After 24 h of incubation, Western blotting experiments were performed to confirm whether the recombinant proteins bound to the drug-bound beads.

COc1ccc(-c2cc(=O)oc3c(C)c(OC(=O)[C@H](Cc4c[nH]c5ccccc45)NC(=O)OC(C)(C)C)ccc23)cc1 [DTMB, [4-(4-Methoxyphenyl)-8-methyl-2-oxochromen-7-yl](2S)-3-(1H-indol-3-yl)-2-[(2-methylpropan-2-yl)oxycarbonylamino]propanoate]
PPARβ/δ activation versus positive control [1]: activated at a slightly higher concentration than GW501516 and rosiglitazone, respectively | Level of IL-6 [2]: statistically significantly reduced | Level of TNF-α [2]: statistically significantly reduced | Expression of Il-1β [3]: decreased | Expression of Il-6 [3]: decreased | Expression of anti-inflammatory marker Arg-1 [3]: induced | Expression of iNOS [3]: decreased | Binding of PPARα ligand-binding protein to drug-bound CNBr beads [4]: binds to all subtypes of PPAR
